# From patent publication US9850287B2, “Means and methods for breaking noncovalent binding interactions between molecules” (Het Nederlands Kanker Instituut, priority 2005, dated 2017)
# Legend:
# [1] = tested on: CD8+ lymphocytes in peripheral blood mononuclear cells of a CMV-positive donor; type: cell-based
# HLA-A2.1 = target: T1, HLA-A2.1 (Homo sapiens, UniProt P04439, D140Y/D185E/D98H/E176V/E277Q/G131W/G231S/I119V/I121R/I166T/I218V/N151K/N90K/P208A/P217A/Q86G/Q94H/R138H/R169H); type: binding
# T1 construct: made in house
substance,measurement,setting,value
"CMV pp65 495-503: CMV pp65 495-503 epitope peptide (NLVPMVATV; UniProt P06725 495-503, looked up, fragment)",staining of CD8+ T-cells by exchange-generated MHC tetramers,[1],detect CMV-specific T-cells at an equal frequency and with similar intensity as conventional CMV pp65 495-503-specific MHC tetramers
"GP100 (614-622): HLA-A3-binding peptide, control not expected to interact with HLA-A2.1 (LIYRRRLMK)",recovery of UV-sensitive MHC multimer upon addition of peptide,HLA-A2.1,does not lead to a substantial increase in the recovery
HY 311-319: HLA-A2.1-binding peptide (FIDSYICQV),recovery of UV-sensitive MHC multimer upon addition of peptide,HLA-A2.1,highly increased recovery
same,staining of CD8+ T-cells by exchange-generated MHC tetramers,[1],do not show measurable binding
MART I 26-35 (A2L mutant),staining of CD8+ T-cells by exchange-generated MHC tetramers,[1],do not show measurable binding
